Read-outs that look alike come from different tables or passages of the source.
Experiments:
Type in all cases: biochemical
[1] = target: T1, NMDAR2B expressing HEK cell membranes (Homo sapiens, UniProt Q13224); assay: NMDAR agonist assay, [3H]MK-801 binding, NMDAR2B; details: 50 μM glutamate; for EC50: [3H]MK-801 binding, read-out: NMDAR2B log EC50 (converted)
T1 construct: expressed in transfected cells; host or cells: HEK cells (membrane extract)
Method: (§1) (nonequilibrium conditions).
(§2) The baseline value was determined from the best fit curve of the DPM values modeled using the GraphPad program and the log(agonist) vs. response(three parameters) algorithm was then subtracted from all points in the dataset.

[2] = target: T2, NMDAR2A expressing HEK cell membranes (Homo sapiens, UniProt Q05586+Q12879); assay: NMDAR agonist assay, [3H]MK-801 binding, NMDAR2A; details: [3H]MK-801 binding
T2 construct: expressed in transfected cells; host or cells: HEK cells (membrane extract)
T2 sequence (Q12879 23-1464, other chains not shown): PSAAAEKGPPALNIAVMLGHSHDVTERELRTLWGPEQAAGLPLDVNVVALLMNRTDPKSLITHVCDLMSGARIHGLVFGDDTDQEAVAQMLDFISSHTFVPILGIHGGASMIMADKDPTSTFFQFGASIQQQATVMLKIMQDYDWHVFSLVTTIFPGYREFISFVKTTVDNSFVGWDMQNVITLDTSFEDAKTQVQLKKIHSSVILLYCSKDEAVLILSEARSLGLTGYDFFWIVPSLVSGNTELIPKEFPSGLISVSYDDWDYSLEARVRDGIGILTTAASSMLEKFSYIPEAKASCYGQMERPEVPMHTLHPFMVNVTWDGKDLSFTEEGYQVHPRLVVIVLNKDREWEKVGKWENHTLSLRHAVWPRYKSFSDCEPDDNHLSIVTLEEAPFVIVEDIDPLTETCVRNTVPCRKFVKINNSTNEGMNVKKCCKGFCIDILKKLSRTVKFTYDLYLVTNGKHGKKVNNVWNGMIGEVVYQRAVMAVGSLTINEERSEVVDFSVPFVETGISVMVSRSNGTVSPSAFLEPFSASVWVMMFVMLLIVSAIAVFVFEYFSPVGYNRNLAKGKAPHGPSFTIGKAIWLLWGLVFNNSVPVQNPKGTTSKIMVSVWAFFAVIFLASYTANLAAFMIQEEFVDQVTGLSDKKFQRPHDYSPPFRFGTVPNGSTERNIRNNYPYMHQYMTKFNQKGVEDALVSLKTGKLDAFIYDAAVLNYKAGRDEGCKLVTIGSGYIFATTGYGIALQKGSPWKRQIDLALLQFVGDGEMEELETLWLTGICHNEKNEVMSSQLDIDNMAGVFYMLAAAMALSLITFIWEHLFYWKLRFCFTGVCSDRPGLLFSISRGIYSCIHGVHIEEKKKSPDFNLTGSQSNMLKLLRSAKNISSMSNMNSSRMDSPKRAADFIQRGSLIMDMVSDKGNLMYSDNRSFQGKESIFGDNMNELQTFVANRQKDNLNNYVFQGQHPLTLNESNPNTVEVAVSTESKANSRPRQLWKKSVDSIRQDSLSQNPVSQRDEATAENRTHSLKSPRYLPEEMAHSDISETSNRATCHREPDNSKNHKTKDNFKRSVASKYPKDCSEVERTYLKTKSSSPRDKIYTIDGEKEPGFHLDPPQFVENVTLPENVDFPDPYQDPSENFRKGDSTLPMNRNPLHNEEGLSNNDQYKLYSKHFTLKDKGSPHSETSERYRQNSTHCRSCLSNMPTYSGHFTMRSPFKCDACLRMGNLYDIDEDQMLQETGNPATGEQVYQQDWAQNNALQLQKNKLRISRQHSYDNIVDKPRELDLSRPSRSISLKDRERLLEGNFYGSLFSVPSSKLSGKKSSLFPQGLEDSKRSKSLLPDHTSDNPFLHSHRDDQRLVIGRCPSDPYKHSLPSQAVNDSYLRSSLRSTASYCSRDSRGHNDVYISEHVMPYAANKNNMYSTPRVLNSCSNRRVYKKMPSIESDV
Method: as §1, §2

[3] = target: T3, NMDAR2A expressing HEK cell membranes (Homo sapiens, UniProt Q12879); assay: NMDAR agonist assay, [3H]MK-801 binding, NMDAR2A; details: 50 μM glutamate; for EC50: [3H]MK-801 binding, read-out: NMDAR2A: log EC50 (converted)
T3 construct: expressed in transfected cells; host or cells: HEK cells (membrane extract)
T3 sequence (Q12879 23-1464, other chains not shown): as above
Method: as §1, §2

[4] = target: T4, NMDAR2B expressing HEK cell membranes (Homo sapiens, UniProt Q05586+Q13224); assay: NMDAR agonist assay, [3H]MK-801 binding, NMDAR2B; details: for EC50: [3H]MK-801 binding; for Emax: relative to 1 mM glycine, read-out: NMDAR2B: % maximal [3H]MK-801 binding relative to 1 mM glycine
T4 construct: expressed in transfected cells; host or cells: HEK cells (membrane extract)
T4 sequence (Q13224 27-1484, other chains not shown): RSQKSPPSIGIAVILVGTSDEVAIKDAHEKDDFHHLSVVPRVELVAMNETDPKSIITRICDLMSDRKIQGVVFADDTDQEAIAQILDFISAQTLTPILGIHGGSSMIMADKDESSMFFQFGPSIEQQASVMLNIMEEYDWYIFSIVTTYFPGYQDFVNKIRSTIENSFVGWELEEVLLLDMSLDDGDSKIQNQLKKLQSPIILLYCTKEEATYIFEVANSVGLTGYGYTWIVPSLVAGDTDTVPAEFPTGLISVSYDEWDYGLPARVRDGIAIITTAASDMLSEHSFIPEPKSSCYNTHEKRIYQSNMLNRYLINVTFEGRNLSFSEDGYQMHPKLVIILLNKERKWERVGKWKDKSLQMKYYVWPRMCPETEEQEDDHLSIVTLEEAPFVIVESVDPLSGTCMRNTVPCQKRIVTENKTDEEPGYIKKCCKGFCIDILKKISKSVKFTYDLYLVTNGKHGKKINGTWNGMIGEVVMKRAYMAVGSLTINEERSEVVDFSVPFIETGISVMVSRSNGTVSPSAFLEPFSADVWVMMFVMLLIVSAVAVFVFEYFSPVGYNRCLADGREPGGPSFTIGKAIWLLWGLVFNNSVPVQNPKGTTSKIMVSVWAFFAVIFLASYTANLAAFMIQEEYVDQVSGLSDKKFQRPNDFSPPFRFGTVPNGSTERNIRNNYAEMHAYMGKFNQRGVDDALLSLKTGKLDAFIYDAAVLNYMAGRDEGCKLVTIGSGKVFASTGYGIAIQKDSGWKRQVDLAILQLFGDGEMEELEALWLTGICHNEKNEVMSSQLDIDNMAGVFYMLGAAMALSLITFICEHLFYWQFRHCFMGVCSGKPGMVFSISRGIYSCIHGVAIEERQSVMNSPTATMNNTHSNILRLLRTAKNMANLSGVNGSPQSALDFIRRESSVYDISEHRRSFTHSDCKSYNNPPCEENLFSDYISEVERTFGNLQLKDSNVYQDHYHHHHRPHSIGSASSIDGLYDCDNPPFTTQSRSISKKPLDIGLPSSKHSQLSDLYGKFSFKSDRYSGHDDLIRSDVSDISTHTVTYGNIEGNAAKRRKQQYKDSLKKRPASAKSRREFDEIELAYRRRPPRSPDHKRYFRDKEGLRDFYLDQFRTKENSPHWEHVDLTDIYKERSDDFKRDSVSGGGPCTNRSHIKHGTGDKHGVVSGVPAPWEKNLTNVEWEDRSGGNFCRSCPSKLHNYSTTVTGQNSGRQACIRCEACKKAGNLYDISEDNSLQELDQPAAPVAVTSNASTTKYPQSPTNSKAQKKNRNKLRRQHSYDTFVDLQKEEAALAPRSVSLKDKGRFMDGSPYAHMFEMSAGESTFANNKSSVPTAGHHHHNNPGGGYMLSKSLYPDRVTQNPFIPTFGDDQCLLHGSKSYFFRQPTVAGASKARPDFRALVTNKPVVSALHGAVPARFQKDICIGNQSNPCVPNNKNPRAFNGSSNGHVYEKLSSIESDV
Method: as §1, §2

[5] = 50 μM glutamate, read-out: NMDAR2A: log EC50 (converted)
[6] = 50 μM glutamate, read-out: NMDAR2B log EC50 (converted)

SMILES | EC50 [1] | NMDAR2B: % maximal [3H]MK-801 binding relative to 1 mM glycine [1] | EC50 [2, 5] | NMDAR2A: % maximal [3H]MK-801 binding relative to 1 mM glycine [3] | EC50 [4, 6] | EC50 ([4]; NMDAR2B: log EC50, 50 μM glutamate) | EC50 ([2]; NMDAR2A: log EC50, 50 μM glutamate) | EC50 [3] | Emax ([4]; 50 μM glutamate)
C[C@@H](O)[C@H](NC(=O)C1CCC2(CNC2=O)N1C)C(N)=O (single isomer, unassigned) [BD] | < 1 nM | + (<100%=+) | < 1 nM | + (<100%=+) |  |  |  |  | 
O=C1NCC12CN(Cc1ccccc1)C1(CNC1=O)C2 (single isomer, unassigned) [DO, 10-benzyl-2,8,10-triazadispiro[3.1.3^6.2^4]undecane-1,7-dione] |  | − (−=0) | < 1 nM | + (<100%=+) | > 100 nM |  |  |  | 
C[C@@H](O)[C@H](NC1CN(C(=O)OC(C)(C)C)C2(CNC2=O)C1)C(N)=O (single isomer, unassigned) [CH] | > 100 nM | − (−=0) | > 100 nM | − (−=0) |  |  |  |  | 
O=C1NCC12CCC1(CNC1=O)N2 (single isomer, unassigned) [AK, 2,5,8-triazadispiro[3.1.36.24]undecane-1,7-dione] |  | − (−=0) |  | − (−=0) |  | > 100 nM | > 100 nM |  | 
CC(C)(C)OC(=O)N1C2(CCC13CNC3=O)CNC2=O (single isomer, unassigned) [AA-2, tert-butyl 1,7-dioxo-2,5,8-triazadispiro[3.1.36.24]undecane-5-carboxylate] | > 100 nM | − (−=0) |  | + (<100%=+) |  |  |  |  | 
CC(C)(C)OC(=O)N1CC2(CN(OCc3ccccc3)C2=O)CC12CN(OCc1ccccc1)C2=O (single isomer, unassigned) [AV, tert-butyl 2,8-bis(benzyloxy)-1,7-dioxo-2,8,10-triazadispiro[3.1.36.24]undecane-10-carboxylate] |  | + (<100%=+) | > 100 nM | − (−=0) | < 1 nM |  |  |  | 
C[C@@H](O)[C@H](NCC1CCC2(CN(OCc3ccccc3)C2=O)N1C(=O)OC(C)(C)C)C(=O)N(C)C (single isomer, unassigned) [BR] |  | ++ (>100%=++) | < 1 nM | + (<100%=+) |  |  |  |  | 
O=C1NCC12CN(Cc1ccc(F)cc1)C1(CNC1=O)C2 (single isomer, unassigned) [DN, 10-(4-fluorobenzyl)-2,8,10-triazadispiro[3.1.3^6.2^4]undecane-1,7-dione] | < 1 nM | + (<100%=+) | < 1 nM | + (<100%=+) |  |  |  |  | 
CC(C)(C)OC(=O)N1C2(CCC13CNC3=O)CNC2=O (single isomer, unassigned) [AA-3, tert-butyl 1,7-dioxo-2,5,8-triazadispiro[3.1.36.24]undecane-5-carboxylate] | > 100 nM | − (−=0) |  | − (−=0) |  |  |  | > 100 nM | 
O=C1NCC12CN(Cc1ccc(F)cc1)C1(CNC1=O)C2 (single isomer, unassigned) [DL, 10-(4-fluorobenzyl)-2,8,10-triazadispiro[3.1.3^6.2^4]undecane-1,7-dione] | < 1 nM | + (<100%=+) | > 100 nM | − (−=0) |  |  |  |  | 
CC(O)C(C(N)=O)N(C)CC1CCC2(CN(OCc3ccccc3)C2=O)N1 (single isomer, unassigned) [CS] | < 1 nM | + (<100%=+) | > 100 nM | − (−=0) |  |  |  |  | 
C[C@@H](O)[C@H](NCC1CCC2(CN(OCc3ccccc3)C2=O)N1C(=O)OC(C)(C)C)C(=O)N(C)C (single isomer, unassigned) [BQ] |  |  | > 100 nM | − (−=0) | < 1 nM |  |  |  | < 100%
CC(C)(C)OC(=O)N1C(C(N)=O)CCC12CN(OCc1ccccc1)C2=O (single isomer, unassigned) [BG, tert-butyl 2-(benzyloxy)-6-carbamoyl-1-oxo-2,5-diazaspiro[3.4]octane-5-carboxylate] |  |  | < 1 nM | + (<100%=+) |  |  |  |  | < 100%
C[C@@H](O)[C@H](NCC1CCC2(CNC2=O)N1C(=O)OC(C)(C)C)C(=O)N(C)C (single isomer, unassigned) [BS] |  | + (<100%=+) | > 100 nM | − (−=0) | < 1 nM |  |  |  | 
CC(O)C(NCC1CCC2(CN(OCc3ccccc3)C2=O)N1)C(N)=O (single isomer, unassigned) [CL] | < 1 nM | + (<100%=+) | < 1 nM | + (<100%=+) |  |  |  |  | 
CNC(=O)[C@@H](NCC1CCC2(CN(OCc3ccccc3)C2=O)N1C(=O)OC(C)(C)C)[C@@H](C)O (single isomer, unassigned) [BN] | > 100 nM |  |  |  |  |  |  | > 100 nM | 
O=C1NCC12CN(Cc1ccccc1)C1(CNC1=O)C2 (single isomer, unassigned) [DR, 10-benzyl-2,8,10-triazadispiro[3.1.3^6.2^4]undecane-1,7-dione] |  | + (<100%=+) | < 1 nM | + (<100%=+) | < 1 nM |  |  |  | 
CNC(=O)C(NCC1CCC2(CNC2=O)N1)C(C)O (single isomer, unassigned) [CR] | < 1 nM | ++ (>100%=++) | < 1 nM | + (<100%=+) |  |  |  |  | 
CC(C)CN1C(C(=O)N[C@H](C(N)=O)[C@@H](C)O)CCC12CNC2=O (single isomer, unassigned) [BB] |  | + (<100%=+) |  | + (<100%=+) | < 1 nM |  |  |  | 
CC(O)C(NCC1CCC2(CN(OCc3ccccc3)C2=O)N1)C(N)=O (single isomer, unassigned) [CK] |  |  | > 100 nM | − (−=0) | < 1 nM |  |  |  | < 100%
CC(C)CN1C(C(N)=O)CCC12CNC2=O (single isomer, unassigned) [DD, 5-isobutyl-1-oxo-2,5-diazaspiro[3.4]octane-6-carboxamide] | < 1 nM | + (<100%=+) |  | + (<100%=+) |  |  |  | < 1 nM | 
NC(=O)C1CCC2(CNC2=O)N1Cc1ccccc1 (single isomer, unassigned) [DF, 5-benzyl-1-oxo-2,5-diazaspiro[3.4]octane-6-carboxamide] | < 1 nM |  |  |  |  |  |  | < 1 nM | 
O=C1NCC12CN(Cc1ccc(F)cc1)C1(CNC1=O)C2 (single isomer, unassigned) [DM, 10-(4-fluorobenzyl)-2,8,10-triazadispiro[3.1.3^6.2^4]undecane-1,7-dione] | < 1 nM | + (<100%=+) | < 1 nM | + (<100%=+) |  |  |  |  | 
CNC(=O)C(C(C)O)N(C)CC1CCC2(CN(OCc3ccccc3)C2=O)N1 (single isomer, unassigned) [CX] | < 1 nM | ++ (>100%=++) |  | + (<100%=+) |  |  |  | < 1 nM | 
CNC(=O)C(NCC1CCC2(CN(OCc3ccccc3)C2=O)N1)C(C)O (single isomer, unassigned) [CP] | < 1 nM |  |  |  |  |  |  | < 1 nM | 
CC(C)C(=O)N1C2(CCC13CNC3=O)CNC2=O (single isomer, unassigned) [AI, 5-isobutyryl-2,5,8-triazadispiro[3.1.36.24]undecane-1,7-dione] |  | − (−=0) |  | + (<100%=+) | > 100 nM |  |  | < 1 nM | 
CC(O)C(NCC1CCC2(CNC2=O)N1)C(N)=O (single isomer, unassigned) [CN] | < 1 nM | + (<100%=+) |  | ++ (>100%=++) |  |  |  | < 1 nM | 
NC(=O)C1CCC2(CNC2=O)N1Cc1ccc(F)cc1 (single isomer, unassigned) [DH, 5-(4-fluorobenzyl)-1-oxo-2,5-diazaspiro[3.4]octane-6-carboxamide] |  | ++ (>100%=++) |  | + (<100%=+) | < 1 nM |  |  | < 1 nM | 
CNC(=O)C(NCC1CCC2(CNC2=O)N1)C(C)O (single isomer, unassigned) [CQ] |  |  | > 100 nM | − (−=0) | < 1 nM |  |  |  | > 100%
C[C@@H](O)[C@H](NC(=O)C1CCC2(CNC2=O)N1Cc1ccccc1)C(N)=O (single isomer, unassigned) [AL-2] |  | − (−=0) |  | + (<100%=+) | > 100 nM |  |  |  | 

— patent US11028095B2, “Spiro-lactam and bis-spiro-lactam NMDA receptor modulators and uses thereof” (Aptinyx Inc., priority 2016, dated 2021)
